Patent US20260265248A1, “NOVEL PD-L1 INHIBITORS” (AFFIRMA BIOTECH S. L., priority 2023, published 2026)

These compounds were tested against T1, PD-1/PD-L1 (Homo sapiens, UniProt Q9NZQ7) (assay: PD1-PDL1 HTRF assay). Conditions: PD-1/PD-L1 homogenous time-resolved fluorescence (HTRF) binding assay; Tag1-PDL1 5 nM, Tag2-PD1 50 nM.
T1 construct: purchased CisBio
T1 sequence (Q9NZQ7 19-238 limits assumed): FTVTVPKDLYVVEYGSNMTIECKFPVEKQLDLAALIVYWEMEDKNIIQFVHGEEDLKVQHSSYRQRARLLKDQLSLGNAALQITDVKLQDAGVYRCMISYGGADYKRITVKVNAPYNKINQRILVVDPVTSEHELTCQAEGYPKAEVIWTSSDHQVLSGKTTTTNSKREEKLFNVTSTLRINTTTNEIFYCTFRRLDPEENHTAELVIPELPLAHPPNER
Description: The CisBio HTRF assay kit, purchased from CisBio only, was employed to determine the IC50 values of compounds. The PD1-PDL1 HTRF assay measures the interactions between the two proteins, PD1 and PDL1. The interaction is detected by using anti-Tag1 labeled with Europium (HTRF donor) which binds to PDL1 and anti-Tag2 labeled with XL665 (HTRF acceptor) which binds to PD1. When the two antibodies are in proximity, the excitation of the donor fluorophore results in FRET emission from the acceptor fluorophore. The presence of inhibitors for such an interaction result in reduction of HTRF signal.
The assay was conducted in 96-well white assay plates. All the reagents, including Tag1-PDL1, Tag2-PD1, Anti-Tag1-PDL1, Anti-Tag2-PD1 were thawed and diluted with PPI Europium Detection buffer to achieve the desired concentration as per the manufacturer's protocol. A 1000 μM stock solution of test inhibitors was prepared in DMSO. The stock solution was diluted in DMSO to prepare 8 concentrations (1000-0.001 μM). These stock solutions were further diluted in PPI Europium detection buffer to prepare 8 working stock solutions (100-0.0001 μM). To the 96-well plate, 2 μL of the test inhibitor working stock solutions were added followed by 4 μL of Tag1-PDL1 (5 nM) and 4 μL of Tag2-PD1 (50 nM). The plate was incubated at room temperature for 15 min. Subsequently, 10 μL of pre-mixed Anti-Tag1-PDL1 and Anti-Tag2-PD1 solution was added. The plate was sealed and incubated at room temperature for 1 h. The HTRF signal was read on Perkin Elmer Envision plate reader using excitation wavelength of 320 nm, emission wavelengths of 620 nm and 665 nm. Results were obtained by calculating the ratio of signal from acceptor at 665 nm to that of signal from donor at 620 nm multiplied by […]. The IC50 values were determined by the Hill equation using GraphPad Prism software.
`Cc1c(-c2ccccc2)cccc1-c1ccn2c(-c3ccc(CN4CCC[C@@H]4CO)cc3)cnc2c1` [Example 23, (R)-(1-(4-(7-(2-methyl-[1,1′-biphenyl]-3-yl)imidazo[1,2-a]pyridin-3-yl)benzyl)pyrrolidin-2-yl)methanol] gave an IC50 of 100 to 1000 nM. Work on `COc1nc(-c2cccc(-c3cccc(-c4ccc5nnc(CNC[C@@H]6CCC(=O)N6)n5c4)c3C)c2C)cnc1CNC[C@@H]1CCC(=O)N1` [Example 94, (S)-5-((((5-(2,2′-dimethyl-3′-(3-(((((S)-5-oxopyrrolidin-2-yl)methyl)amino)methyl)-[1,2,4]triazolo[4,3-a]pyridin-6-yl)-[1,1′-biphenyl]-3-yl)-3-methoxypyrazin-2-yl)methyl)amino)methyl)pyrrolidin-2-one] yielded an IC50 of at most 10 nM. Work on `Cc1c(-c2ccc3c(c2)OCCO3)cccc1-c1ccn2c(-c3ccc(CNC[C@@H](O)CO)cc3)cnc2c1` [Example 31, (R)-3-((4-(7-(3-(2,3-dihydrobenzo[b][1,4]dioxin-6-yl)-2-methylphenyl)imidazo[1,2-a]pyridin-3-yl)benzyl)amino)propane-1,2-diol] yielded an IC50 of 100 to 1000 nM. `Cc1c(NC(=O)c2ccc(CNCCO)cn2)cccc1-c1cccc(-c2ccn3c(-c4ccc(CNCCO)cc4)nnc3c2)c1C` [Example 70, 5-(((2-hydroxyethyl)amino)methyl)-N-(3′-(3-(4-(((2-hydroxyethyl)amino)methyl)phenyl)-[1,2,4]triazolo[4,3-a]pyridin-7-yl)-2,2′-dimethyl-[1,1′-biphenyl]-3-yl)picolinamide] showed an IC50 of at most 10 nM. `Cc1c(-c2ccccc2)cccc1-c1ccn2c(-c3ccc(CNCCO)cc3)nnc2c1` [Example 54, 2-((4-(7-(2-methyl-[1,1′-biphenyl]-3-yl)-[1,2,4]triazolo[4,3-a]pyridin-3-yl)benzyl)amino)ethan-1-ol] showed an IC50 of 100 to 1000 nM. With `Cc1c(-c2ccc(CNCCO)cc2)cccc1-c1cccc(-c2ccn3c(-c4ccc(CN5CCC[C@@H]5C(=O)O)cc4)nnc3c2)c1C` [Example 62, (4-(7-(4″-(((2-hydroxyethyl)amino)methyl)-2,2′-dimethyl-[1,1′:3′,1″-terphenyl]-3-yl)-[1,2,4]triazolo[4,3-a]pyridin-3-yl)benzyl)-D-proline] the IC50 was at most 10 nM. Compound `Cc1c(-c2ccc3c(c2)OCCO3)cccc1-c1ccn2c(-c3ccc(CN4CCOCC4C(=O)O)cc3)cnc2c1` (racemic) [Example 33, 4-(4-(7-(3-(2,3-dihydrobenzo[b][1,4]dioxin-6-yl)-2-methylphenyl)imidazo[1,2-a]pyridin-3-yl)benzyl)morpholine-3-carboxylic acid] has an IC50 of 100 to 1000 nM. In the case of `OCCNCc1nc2cc(-c3cccc(-c4cccc(-c5ccc(CN6CCC[C@H]6CO)cc5)c4Cl)c3Cl)ccn2n1` [Example 113, (S)-2-(((7-(2,2′-dichloro-4″-((2-(hydroxymethyl)pyrrolidin-1-yl)methyl)-[1,11:31,1″-terphenyl]-3-yl)-[1,2,4]triazolo[1,5-a]pyridin-2-yl)methyl)amino)ethan-1-ol], the IC50 is reported as at most 10 nM. In the case of `Cc1c(NC(=O)c2ccc(CNCCO)cn2)cccc1-c1cccc(-c2ccn3c(CNC[C@@H]4CCC(=O)N4)nnc3c2)c1C` [Example 95, (S)—N-(2,2′-dimethyl-3′-(3-((((5-oxopyrrolidin-2-yl)methyl)amino)methyl)-[1,2,4]triazolo[4,3-a]pyridin-7-yl)-[1,1′-biphenyl]-3-yl)-5-(((2-hydroxyethyl)amino)methyl)picolinamide], the IC50 is reported as at most 10 nM. `Cc1c(-c2ccccc2)cccc1-c1ccn2c(-n3ccc(C(=O)NCC(=O)O)n3)cnc2c1` [Example 45, (1-(7-(2-methyl-[1,1′-biphenyl]-3-yl)imidazo[1,2-a]pyridin-3-yl)-1H-pyrazole-3-carbonyl)glycine] showed an IC50 of 100 to 1000 nM. `Cc1c(-c2ccc3c(c2)OCCO3)cccc1-c1ccn2c(-c3ccc(CN4CCOCC4C(=O)O)cc3)cnc2c1` (single isomer, unassigned) [Example 35, 4-(4-(7-(3-(2,3-dihydrobenzo[b][1,4]dioxin-6-yl)-2-methylphenyl)imidazo[1,2-a]pyridin-3-yl)benzyl)morpholine-3-carboxylic acid] showed an IC50 of 100 to 1000 nM. With `Cc1c(-c2ccn3c(CNCCO)nnc3c2)cccc1-c1cccc(-c2ccn3c(CNCCO)nnc3c2)c1C` [Example 89, 2,2′-((((2,2′-dimethyl-[1,1′-biphenyl]-3,3′-diyl)bis([1,2,4]triazolo[4,3-a]pyridine-7,3-diyl))bis(methylene))bis(azanediyl))bis(ethan-1-ol)] the IC50 was 100 to 1000 nM. Work on `Cc1c(NC(=O)c2ccc(CNCCO)cc2)cccc1-c1cccc(-c2ccn3nc(CNC[C@@H]4CCC(=O)N4)nc3c2)c1C` [Example 103, (S)—N-(2,2′-dimethyl-3′-(2-((((5-oxopyrrolidin-2-yl)methyl)amino)methyl)-[1,2,4]triazolo[1,5-a]pyridin-7-yl)-[1,1′-biphenyl]-3-yl)-4-(((2-hydroxyethyl)amino)methyl)benzamide] yielded an IC50 of 100 to 1000 nM. With `Cc1c(-c2ccc3c(c2)OCCO3)cccc1-c1ccn2c(-c3ccc(CN4CC[C@H]4C(=O)O)cc3)cnc2c1` [Example 26, (S)-1-(4-(7-(3-(2,3-dihydrobenzo[b][1,4]dioxin-6-yl)-2-methylphenyl)imidazo[1,2-a]pyridin-3-yl)benzyl)azetidine-2-carboxylic acid] the IC50 was 100 to 1000 nM. Compound `Cc1c(-c2ccc(CNC[C@@H]3CCC(=O)N3)cc2)cccc1-c1cccc(-c2ccn3c(CNC[C@@H]4CCC(=O)N4)nnc3c2)c1C` [Example 90, (S)-5-((((2′,2″-dimethyl-3″-(3-(((((S)-5-oxopyrrolidin-2-yl)methyl)amino)methyl)-[1,2,4]triazolo[4,3-a]pyridin-7-yl)-[1,1′:3′,1″-terphenyl]-4-yl)methyl)amino)methyl)pyrrolidin-2-one] has an IC50 of at most 10 nM. Work on `Cc1c(-c2ccc(CNCCO)cc2)cccc1-c1cccc(-c2ccn3c(CN4CC[C@@H](C(=O)O)C4)nnc3c2)c1C` [Example 87, (R)-1-((7-(4″-(((2-hydroxyethyl)amino)methyl)-2,2′-dimethyl-[1,1′:3′,1″-terphenyl]-3-yl)-[1,2,4]triazolo[4,3-a]pyridin-3-yl)methyl)pyrrolidine-3-carboxylic acid] yielded an IC50 of 10 to 100 nM. `CC(C)(CO)NCc1nc2cc(-c3cccc(-c4cccc(-c5ccc(CNCCO)cc5)c4Cl)c3Cl)ccn2n1` [Example 116, 2-(((7-(2,2′-dichloro-4″-(((2-hydroxyethyl)amino)methyl)-[1,1′:31,1″-terphenyl]-3-yl)-[1,2,4]triazolo[1,5-a]pyridin-2-yl)methyl)amino)-2-methylpropan-1-ol] gave an IC50 of at most 10 nM. In the case of `Cc1c(-c2ccccc2)cccc1-c1ccn2c(-c3ccc(CN4CC(C(=O)O)C4)cc3)cnc2c1` [Example 7, 1-(4-(7-(2-methyl-[1,1′-biphenyl]-3-yl)imidazo[1,2-a]pyridin-3-yl)benzyl)azetidine-3-carboxylic acid], the IC50 is reported as 100 to 1000 nM. Compound `COCCNCc1ccc(-c2nnc3cc(-c4cccc(-c5cccc(NC(=O)c6ccc(CNCCO)cn6)c5C)c4C)ccn23)cc1` [Example 72, 5-(((2-hydroxyethyl)amino)methyl)-N-(3′-(3-(4-(((2-methoxyethyl)amino)methyl)phenyl)-[1,2,4]triazolo[4,3-α]pyridin-7-yl)-2,2′-dimethyl-[1,1′-biphenyl]-3-yl)picolinamide] has an IC50 of at most 10 nM. For `Cc1c(-c2ccccc2)cccc1-c1ccn2c(-c3ccc(CNCCCO)cc3)nnc2c1` [Example 15, 3-((4-(7-(2-methyl-[1,1′-biphenyl]-3-yl)-[1,2,4]triazolo[4,3-a]pyridin-3-yl)benzyl)amino)propan-1-ol], the IC50 was 100 to 1000 nM.
